Measured values taken from US20060198907A1, “Pharmaceutical, therapeutic, and dietary compositions derived from Lagerstroemia speciosa L. plant” (priority 2004, published 2006).

Target: xanthine oxidase (Homo sapiens, UniProt P47989)
Test: Inhibition of xanthine oxidase activity
Type: biochemical
Settings: observed by the inventors, in words

xanthine oxidase, sequence (P47989 whole entry, species assumed): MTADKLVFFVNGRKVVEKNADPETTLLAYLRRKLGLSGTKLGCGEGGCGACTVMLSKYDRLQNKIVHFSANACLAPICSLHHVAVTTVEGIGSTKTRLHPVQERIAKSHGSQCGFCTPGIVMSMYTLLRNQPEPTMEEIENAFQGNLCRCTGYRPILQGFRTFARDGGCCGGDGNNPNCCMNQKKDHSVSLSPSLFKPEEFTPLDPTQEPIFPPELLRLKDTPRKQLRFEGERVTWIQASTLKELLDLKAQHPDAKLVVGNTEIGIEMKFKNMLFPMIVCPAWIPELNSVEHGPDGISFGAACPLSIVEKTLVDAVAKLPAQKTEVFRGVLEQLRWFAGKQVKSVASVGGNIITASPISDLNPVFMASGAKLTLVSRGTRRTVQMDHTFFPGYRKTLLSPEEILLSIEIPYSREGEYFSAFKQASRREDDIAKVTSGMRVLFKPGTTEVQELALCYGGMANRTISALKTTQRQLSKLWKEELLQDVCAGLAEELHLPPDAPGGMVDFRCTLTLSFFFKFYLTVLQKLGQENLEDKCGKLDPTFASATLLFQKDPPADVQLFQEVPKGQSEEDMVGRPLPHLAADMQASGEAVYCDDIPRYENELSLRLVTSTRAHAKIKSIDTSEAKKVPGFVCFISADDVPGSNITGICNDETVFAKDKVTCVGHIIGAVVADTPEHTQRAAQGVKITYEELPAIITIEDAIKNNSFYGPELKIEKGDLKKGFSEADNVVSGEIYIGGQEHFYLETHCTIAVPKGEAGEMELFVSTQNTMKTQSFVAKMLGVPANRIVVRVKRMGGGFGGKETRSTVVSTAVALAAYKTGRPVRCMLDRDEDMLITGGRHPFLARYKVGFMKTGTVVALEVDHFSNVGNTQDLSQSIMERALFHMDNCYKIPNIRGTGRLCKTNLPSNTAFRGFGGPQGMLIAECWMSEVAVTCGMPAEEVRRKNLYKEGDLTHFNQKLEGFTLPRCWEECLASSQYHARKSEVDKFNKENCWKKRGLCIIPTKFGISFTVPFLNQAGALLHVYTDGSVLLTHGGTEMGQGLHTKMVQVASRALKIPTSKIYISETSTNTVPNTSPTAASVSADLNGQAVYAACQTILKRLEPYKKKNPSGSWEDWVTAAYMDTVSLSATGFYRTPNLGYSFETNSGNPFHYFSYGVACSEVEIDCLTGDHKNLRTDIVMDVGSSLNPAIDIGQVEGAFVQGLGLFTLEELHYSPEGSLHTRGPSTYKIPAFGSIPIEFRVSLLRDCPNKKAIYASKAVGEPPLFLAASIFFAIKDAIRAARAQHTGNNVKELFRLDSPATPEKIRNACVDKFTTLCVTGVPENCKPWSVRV

inhibition of xanthine oxidase activity: inhibition of xanthine oxidase activity
Structure (SMILES): O=C(O)c1cc(O)c(O)c(O)c1Oc1cc2c(=O)oc3c(O)c(O)cc4c(=O)oc(c1O)c2c34 [valoneic acid dilactone]
